Measurements published in ChEMBL document CHEMBL1201862, “PubChem BioAssay data set” (2004).
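Exposure lasted 48 hours, with cells grown in 96-well plates and compounds tested at five concentrations. GI50 is the concentration that inhibits growth by half.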 The source made the active and inactive calls. No stated cut-off is given here; in the data, active = GI50 up to about 1.1 µM and inactive = higher.

Experiments:
Test in all cases: NCI anticancer screen, dose series, 48 h
[1] = system: SW-620
[2] = system: A549
[3] = system: NCI-H522
[4] = system: SK-MEL-28
[5] = system: HL-60
[6] = system: ACHN
[7] = system: SF-539
[8] = system: NCI-H460
[9] = system: HCT-15
[10] = system: NCI-H23
[11] = system: EKVX
[12] = system: SK-MEL-5
[13] = system: U-251
[14] = system: OVCAR-3
[15] = system: KM12
[16] = system: UACC-257
[17] = system: SF-295
[18] = system: SNB-75

In the case of `O=C(NCCOCCO)c1ccc(O)cc1`, the GI50 [1] is reported as > 100 µM (inactive), the GI50 [2] is reported as > 100 µM (inactive) and the GI50 [3] is reported as > 100 µM (inactive). The GI50 [4] was > 100 µM (inactive), the GI50 [5] was > 100 µM (inactive) and the GI50 [6] was > 100 µM (inactive). The GI50 [7] was > 100 µM (inactive), the GI50 [8] was > 100 µM (inactive) and the GI50 [9] was greater than 100 µM. For the same compound, the GI50 [10] was > 100 µM (inactive), the GI50 [11] was 20.4 µM (inactive) and the GI50 [12] was > 100 µM (inactive). The GI50 [13] was > 100 µM (inactive).

With `NC(=O)Nc1c([N+](=O)[O-])cc(C(F)(F)F)cc1[N+](=O)[O-]` the GI50 [14] was 28.8 µM (inactive), the GI50 [1] was 51.2 µM (inactive) and the GI50 [2] was > 100 µM (inactive). For the same compound, the GI50 [15] was 57.8 µM (inactive), the GI50 [3] was 32.6 µM (inactive) and the GI50 [4] was > 100 µM (inactive). For the same compound, the GI50 [5] was 33.7 µM (inactive), the GI50 [6] was > 100 µM (inactive) and the GI50 [7] was > 100 µM (inactive). The GI50 [8] was 48.1 µM (inactive), the GI50 [9] was 65.8 µM and the GI50 [10] was 43.8 µM (inactive). For the same compound, the GI50 [16] was 72.3 µM (inactive), the GI50 [17] was > 100 µM (inactive) and the GI50 [11] was > 100 µM (inactive). For the same compound, the GI50 [12] was 49.3 µM (inactive) and the GI50 [13] was > 100 µM (inactive).

For `Cc1cc(C)nc(NS(=O)(=O)c2ccc(Nc3c4ccc(Cl)cc4nc4c(C(=O)Nc5ccc(S(N)(=O)=O)cc5)cccc34)cc2)n1`, the GI50 [14] was 15.5 µM (inactive), the GI50 [15] was 14.2 µM (inactive) and the GI50 [3] was 10.9 µM (inactive). For the same compound, the GI50 [4] was 33.8 µM (inactive), the GI50 [6] was 32.1 µM (inactive) and the GI50 [7] was 17.2 µM (inactive). For the same compound, the GI50 [8] was 17.1 µM (inactive), the GI50 [9] was 17.9 µM and the GI50 [10] was 15.1 µM (inactive). The GI50 [16] was 18.8 µM (inactive), the GI50 [17] was 18.2 µM (inactive) and the GI50 [11] was 21 µM (inactive). For the same compound, the GI50 [18] was 20.3 µM (inactive) and the GI50 [13] was 14.4 µM (inactive).

With `CCCCCCCCCCCCCCCCOC(=O)C(C(=O)OCCCCCCCCCCCCCCCC)[N+](C)(C)CCOC(C)=O` the GI50 [14] was 16.7 µM (inactive), the GI50 [1] was 20.6 µM (inactive) and the GI50 [2] was 20.5 µM (inactive). The GI50 [15] was 13.7 µM (inactive), the GI50 [3] was 5.16 µM (inactive) and the GI50 [4] was 24 µM (inactive). For the same compound, the GI50 [5] was 2.11 µM (inactive), the GI50 [6] was 19.2 µM (inactive) and the GI50 [8] was 28.1 µM (inactive). For the same compound, the GI50 [9] was 22.1 µM, the GI50 [10] was 14.6 µM (inactive) and the GI50 [16] was 19.1 µM (inactive). The GI50 [17] was 18.1 µM (inactive), the GI50 [11] was 21 µM (inactive) and the GI50 [18] was 12.9 µM (inactive). The GI50 [12] was 19.7 µM (inactive) and the GI50 [13] was 12 µM (inactive).

For `C/C=C1/C=CC2c3[nH]c4ccccc4c3CCN2C1` (stereo not drawn), the GI50 [14] was 116 µM (inactive), the GI50 [1] was > 400 µM (inactive) and the GI50 [2] was > 400 µM (inactive). For the same compound, the GI50 [15] was > 400 µM (inactive), the GI50 [3] was 195 µM (inactive) and the GI50 [4] was > 400 µM (inactive). For the same compound, the GI50 [5] was > 400 µM (inactive), the GI50 [6] was > 400 µM (inactive) and the GI50 [7] was > 400 µM (inactive). For the same compound, the GI50 [8] was > 400 µM (inactive), the GI50 [9] was greater than 400 µM and the GI50 [10] was > 400 µM (inactive). The GI50 [16] was 243 µM (inactive), the GI50 [17] was 315 µM (inactive) and the GI50 [11] was > 400 µM (inactive). For the same compound, the GI50 [12] was 138 µM (inactive) and the GI50 [13] was > 400 µM (inactive).

In the case of `Cn1nc(-c2ccccc2)c2c(/C=C/c3ccc(F)cc3)onc2c1=O`, the GI50 [1] is reported as > 100 µM (inactive), the GI50 [2] is reported as 13.6 µM (inactive) and the GI50 [3] is reported as 17.5 µM (inactive). For the same compound, the GI50 [4] was > 100 µM (inactive), the GI50 [5] was 5.92 µM (inactive) and the GI50 [6] was 24.1 µM (inactive). The GI50 [7] was 61.9 µM (inactive), the GI50 [8] was > 100 µM (inactive) and the GI50 [9] was 39.5 µM. The GI50 [10] was 19 µM (inactive), the GI50 [11] was > 100 µM (inactive) and the GI50 [12] was > 100 µM (inactive). For the same compound, the GI50 [13] was 64 µM (inactive).

With `Cc1cc(Cl)cc2c1NC(=O)C2=O.O=C(c1ccccc1)C(F)(F)F` the GI50 [14] was 35.3 µM (inactive), the GI50 [1] was 72.8 µM (inactive) and the GI50 [2] was 52.2 µM (inactive). For the same compound, the GI50 [15] was 61 µM (inactive), the GI50 [3] was 24.7 µM (inactive) and the GI50 [4] was 93.1 µM (inactive). The GI50 [6] was 75.7 µM (inactive), the GI50 [7] was 47.9 µM (inactive) and the GI50 [8] was 70.5 µM (inactive). The GI50 [9] was 64.4 µM, the GI50 [10] was > 100 µM (inactive) and the GI50 [16] was 27.5 µM (inactive). The GI50 [17] was 56.2 µM (inactive), the GI50 [11] was 49 µM (inactive) and the GI50 [18] was 41.1 µM (inactive). For the same compound, the GI50 [12] was 41.7 µM (inactive) and the GI50 [13] was 85.9 µM (inactive).
